In test [1] the test system is Rattus norvegicus. Nature of the test: Antiinflammatory activity in vivo by carrageenan paw edema assay in rat; NA is inactive. Format: functional, organism-based. A general note: In the carrageenan paw model, swelling and tenderness develop within hours.
The target of test [2] is T1, Prostaglandin G/H synthase 1 (Rattus norvegicus, UniProt Q63921).
T1 sequence (Q63921 whole entry): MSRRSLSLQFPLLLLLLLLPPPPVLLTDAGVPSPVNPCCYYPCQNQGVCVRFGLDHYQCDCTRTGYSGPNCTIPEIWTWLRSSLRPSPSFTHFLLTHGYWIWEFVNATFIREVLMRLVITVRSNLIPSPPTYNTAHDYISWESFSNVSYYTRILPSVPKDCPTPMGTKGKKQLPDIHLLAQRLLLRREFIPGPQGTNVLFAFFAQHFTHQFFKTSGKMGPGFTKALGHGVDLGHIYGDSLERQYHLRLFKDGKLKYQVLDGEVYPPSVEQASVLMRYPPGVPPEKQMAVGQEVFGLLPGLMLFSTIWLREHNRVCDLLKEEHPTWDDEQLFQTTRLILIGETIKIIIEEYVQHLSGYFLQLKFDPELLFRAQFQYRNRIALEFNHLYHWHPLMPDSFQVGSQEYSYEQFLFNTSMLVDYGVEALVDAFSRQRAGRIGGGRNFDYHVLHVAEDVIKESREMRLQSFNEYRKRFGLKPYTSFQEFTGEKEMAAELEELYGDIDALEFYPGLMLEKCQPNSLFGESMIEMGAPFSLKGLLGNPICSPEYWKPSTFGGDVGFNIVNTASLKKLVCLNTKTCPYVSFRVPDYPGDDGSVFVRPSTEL
Description: In vitro inhibitory concentration against rat prostaglandin G/H synthase 1

The subject of test [3] is Rattus norvegicus. As to the kind of experiment: Antiinflammatory activity in vivo by carrageenan paw edema assay in rat at a dose of 30 mg/kg: NA is inactive. In kind it is functional, organism-based. Also noted: dose 30 mg/kg.
Test [4] has as its system Rattus norvegicus. As to the kind of experiment: Anti-inflammatory activity in vivo by carrageenan paw edema assay in rat at a dose of 30 mg/kg. In kind it is functional.
The test system of test [5] is Rattus norvegicus. As to the kind of experiment: Antiinflammatory activity in vivo by carrageenan paw edema assay in rat at a dose of 3 mg/kg. Format: functional.
Test [6] deals with Rattus norvegicus. As to the kind of experiment: Antiinflammatory activity in vivo by carrageenan paw edema assay in rat at a dose of 30 mg/kg; NA is inactive. Format: functional, organism-based. Further details: dose 30 mg/kg.
Test [7] relates to Rattus norvegicus. Nature of the test: Antiinflammatory activity in vivo by carrageenan paw edema assay in rat at a dose of 3 mg/kg; NA is inactive. Format: functional, organism-based. Also noted: dose 3 mg/kg.
The test system of test [8] is Rattus norvegicus. As to the kind of experiment: Antiinflammatory activity in vivo by carrageenan paw edema assay in rat at a dose of 10 mg/kg. The following applies: read-out: Inhibition.
Test [9] is filed under the species Rattus norvegicus. Nature of the test: Dose producing ulceration in rats. Format: functional.
For test [10], the species on record is Rattus norvegicus. The following applies: 30 mg/kg.
Description: Antiinflammatory activity in vivo by carrageenan paw edema assay in rat at a dose of 30 mg/kg; NA is not active

Activity calls are given as the source filed them. No cut-off for these calls is given here.

As a reminder, the IC50 is the concentration needed to halve the response being measured. Read a low IC50 as higher potency. For the molecule `CCc1ccc2c(Cc3ccc(Cl)cc3)ccc(C(C)C(=O)O)c2c1` (stereo unspecified), the inhibition entry in test [1] is “inactive”. In test [2], half-maximal inhibition (IC50) required 61 µM.

`CCC(C(=O)O)c1ccc(Cc2ccc(F)cc2)c2ccc(OC)cc12` (stereo unspecified): the inhibition result in test [3] was “inactive”. Moreover, in test [2], the IC50 amounted to 7.3 µM.

Molecule `COc1ccc(Cc2ccc(C(C)C(=O)O)c3cc(OC)ccc23)cc1` (stereo unspecified) registered an inhibition in vivo at 30 mg/kg in test [4] of 45%. Besides, the midpoint of inhibition in [2], the IC50, lay at 8.8 µM. Also, in test [5], the inhibition in vivo at 3 mg/kg was found to be 22%.

Take `COc1ccc2c(C(C)C(=O)O)ccc(Cc3ccc(F)cc3)c2c1` (stereo unspecified): the inhibition entry in test [6] was “inactive”. Moreover, in test [2], the IC50 is > 100 µM.

In the case of `CC(C(=O)O)c1ccc(Cc2ccc(Cl)cc2)c2ccc(S(C)(=O)=O)cc12` (stereo unspecified), in test [4], the inhibition result was “inactive”. The 50% inhibitory concentration (IC50) in [2] is > 100 µM.

Regarding `COc1ccc2c(Cc3cccc(Cl)c3)ccc(C(C)C(=O)O)c2c1` (stereo unspecified), in [4], the inhibition in vivo at 30 mg/kg amounted to 0%. The inhibition in vivo at 3 mg/kg in [5] stood at 0%.

Regarding `COc1ccc2c(Cc3ccc(C(C)(C)C)cc3)ccc(C(C)C(=O)O)c2c1` (stereo unspecified), the inhibition result in test [7] was “inactive”. In addition, the inhibition in vivo at 30 mg/kg in [4] was 32%. The molecule further had a half-inhibitory concentration (IC50) in test [2] of 40.8 µM.

Take `COc1ccc2c(Cc3ccc(C(C)=O)cc3)ccc(C(C)C(=O)O)c2c1` (stereo unspecified): the inhibition result in test [7] and in test [6] was “inactive” throughout. This molecule also had an IC50 in test [2] of 218 µM.

Turning to `COc1ccc2c(Cc3ccccc3Cl)ccc(C(C)C(=O)O)c2c1` (stereo unspecified), the inhibition in vivo at 30 mg/kg in test [4] is 13%. Half-maximal inhibition in [2] (IC50) was put at 2.3 µM. In addition, the inhibition in vivo at 3 mg/kg in [5] was determined as 5%.

With `COc1ccc2c(Cc3ccc(Cl)cc3)cccc2c1`, in test [6], the inhibition entry is “inactive”. Moreover, the IC50 in test [2] is > 100 µM.

Regarding `COc1ccc2c(c1)c(CC(=O)O)c(C)n2C(=O)c1ccc(Cl)cc1` [INDOMETHACIN], in [8], the inhibition in vivo at 10 mg/kg came out at 100%.

One may read the ED50 as the dose at which the effect has come halfway, by size or by number of responders. In [9], `COc1ccc2c(Cc3ccc(Cl)cc3)ccc(C(C)C(=O)O)c2c1` (stereo unspecified) yielded a 50% effective dose (ED50) of 40 mg/kg. The molecule further registered an inhibition in vivo at 30 mg/kg in test [4] of 50%. Moreover, the IC50 in test [2] came out at 4.1 µM.

Regarding `CC(C(=O)O)c1ccc(Cc2ccc(Cl)cc2)c2ccc(Cl)cc12` (stereo unspecified), the inhibition result in test [10] is “inactive”. Besides, the IC50 in test [2] was > 100 µM.

As to `COc1ccc2c(Cc3ccc(Cl)cc3)c(CC(=O)O)ccc2c1`, in test [10], the inhibition entry was “inactive”. Moreover, in test [2], the IC50 was > 100 µM.

`CCOc1ccc(Cc2ccc(C(C)C(=O)O)c3cc(OC)ccc23)cc1` (stereo unspecified) yielded an inhibition in vivo at 30 mg/kg in test [4] of 52%. Besides, in test [2], the IC50 is > 100 µM. Also, in test [5], the inhibition in vivo at 3 mg/kg amounted to 27%.

In [4], `COc1ccc2c(Cc3ccccc3)ccc(C(C)C(=O)O)c2c1` (stereo unspecified) came in with an inhibition in vivo at 30 mg/kg of 58%. In addition, the IC50 in [2] is 1.5 µM. In addition, in test [5], the inhibition in vivo at 3 mg/kg is 30%.

Take `COc1ccc2c(Cc3ccc(C)cc3)ccc(C(C)C(=O)O)c2c1` (stereo unspecified): the inhibition in vivo at 30 mg/kg in test [4] amounted to 49%. The same molecule yielded an IC50 in test [2] of 2.8 µM. The molecule also returned an inhibition in vivo at 3 mg/kg in test [5] of 30%.

`COc1ccc2c(Cc3ccc(F)cc3)ccc(C(C)C(=O)O)c2c1` (stereo unspecified): in test [4], the inhibition in vivo at 30 mg/kg is 53%. Further, in test [2], the half-inhibitory concentration (IC50) came to 1.7 µM.

Turning to `Cc1ccc(-c2cc(C(F)(F)F)nn2-c2ccc(S(N)(=O)=O)cc2)cc1` [CELECOXIB], the inhibition in vivo at 30 mg/kg in test [4] came out at 40%. Besides, in test [5], the inhibition in vivo at 3 mg/kg was determined as 41%.

Take `COc1ccc2c(Cc3ccc(Cl)cc3)cc(CC(=O)O)cc2c1`: the inhibition entry in test [6] was “inactive”. In addition, in [2], the IC50 is > 100 µM.

In the case of `CS(=O)(=O)c1ccc(C2=C(c3ccccc3)C(=O)OC2)cc1` [ROFECOXIB], in [5], the inhibition in vivo at 3 mg/kg was 41%.

On to `CCc1ccc(Cc2ccc(C(C)C(=O)O)c3cc(OC)ccc23)cc1` (stereo unspecified), for which, in test [4], the inhibition in vivo at 30 mg/kg turned out to be 32%. Also, the 50% inhibitory concentration (IC50) in test [2] is > 100 µM.

Molecule `CSc1ccc2c(Cc3ccc(Cl)cc3)ccc(C(C)C(=O)O)c2c1` (stereo unspecified) came in with an inhibition in vivo at 30 mg/kg in [4] of 16%. The molecule further gave an IC50 in test [2] of 19.9 µM.

With `COc1ccc2c(Cc3ccc(Cl)cc3)ccc(CC(=O)O)c2c1`, the inhibition in vivo at 30 mg/kg in test [4] turned out to be 52%. Further, in [2], the IC50 is > 100 µM.

`CC(C(=O)O)c1ccc(Cc2ccc(F)cc2)c2ccccc12` (stereo unspecified) registered an inhibition in vivo at 30 mg/kg in test [4] of 16%. The molecule also yielded an IC50 in test [2] of 2.4 µM.

Values taken from ChEMBL document CHEMBL1133804, “Naphthalene derivatives: A new series of selective cyclooxygenase-2 inhibitors” (Bioorg Med Chem Lett, 2001).
